From patent US20210100832A1, “INJECTABLE COMPOSITION FOR THE TREATMENT OF MUSCULOSKELETAL DISORDERS AND METHODS OF USE THEREOF” (Patchor Ltd., priority 2019, published 2021)

Tests used:
[1] = test system: wistar rats with knee osteoarthritis (ACLT with MMx); test: Von Frey filament mechanical nociceptive threshold test in rat knee OA; assay type: in vivo
Experimental: As described in Example 3, OA was induced on one leg of wistar rats while the contralateral knee served as self-control. Thereafter, 14 rats were divided into two experimental groups. 7 were treated by injection of HA to the knee, as a positive control, and 7 were injected with GR. Injection volume was 150 microliters.
The experimental outcome was assessed using the Von Frey filament method for detection of mechanical nociceptive threshold test.

galectin-3 = galectin-3 (Homo sapiens, UniProt P17931); settings: reference [8]; cited from earlier work
[2] = test system: wistar rats with knee osteoarthritis (ACLT with MMx); test: Weight bearing (incapacitance tester) in rat knee OA induced by ACLT with medial meniscectomy; assay type: in vivo; settings: 150 microliters into the knee; 20 days post treatment (day 34); *p=0.0012, **p=0.0458; FIG. 2
Experimental: Induction of knee osteoarthritis was performed by an anterior cruciate ligament transaction (ACLT) with medial meniscectomy (MMx) on one leg of wistar rats while the contralateral knee served as self-control. After the procedure the animals were divided into three experimental groups of 7 animals per group. Control group was treated by injection of 150 microliters of 1% HA into the knee. Experimental groups were treated by injection of 150 microliters of either GR or GR-HA.
Formulation for dosing of control group was taken from commercial HA-1% viscosupplementation injection (Arthrease 1% sodium hyaluronate Lot R10008G, produced by Bio-Technology General). GR+HA was prepared by Patchor's standard procedures, as described in International Patent Publication No. WO 2009/150651 A1, of mixing HA with GM or with GR. All injections volume was 150 microliters. The positive control HA group was treated immediately post surgery and again at day 14 post surgery, and the HA−CM−GM was treated only once at day 14 post surgery. The experimental outcome was assessed by measuring weight bearing on the OA leg using an incapacitance tester.

Chain of galectin-3 (P17931 whole entry, species assumed): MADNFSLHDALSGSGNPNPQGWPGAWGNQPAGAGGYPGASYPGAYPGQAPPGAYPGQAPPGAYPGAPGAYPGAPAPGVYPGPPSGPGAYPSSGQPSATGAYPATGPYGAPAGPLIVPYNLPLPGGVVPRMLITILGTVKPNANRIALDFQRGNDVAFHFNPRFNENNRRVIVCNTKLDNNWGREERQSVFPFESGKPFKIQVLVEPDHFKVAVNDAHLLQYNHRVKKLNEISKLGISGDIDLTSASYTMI

Row | Substance | pain response compared to control HA (Von Frey) ([1]; 150 microliters into OA knee, FIG. 3) | nociceptive threshold of OA leg versus control HA ([1]; 1 day post treatment, p=0.02) | nociceptive threshold of OA leg versus control HA ([1]; 19 days post treatment, p=0.007) | nociceptive reaction in the healthy legs, GR versus HA group ([1]; healthy contralateral legs, data not shown) | inhibition of galectin-3 (galectin-3) | weight bearing ability on the operated OA leg compared to HA group [2]
1 | Galactoarabino-Rhamnogalacturonan [GR] | significantly reduced pain response | significant reduction in nociceptive threshold | significant reduction in nociceptive threshold | No difference in nociceptive reaction | potent inhibitors of galectin-3 | significant increase in weight bearing ability
2 | Galactomannan [GM] | – | – | – | – | potent inhibitors of galectin-3 | –
